Several values for one entry are separate records, joined by “and”; a condition that tells them apart may be missing. Equal entries are not always repeated. ± gives the expanded uncertainty stated by the source.
Assay: mn = molality of the nth substance listed, in mol/kg
Conditions: 100 kPa, Liquid; for viscosity: Capillary tube (Ostwald / Ubbelohde) method; for mass density: Vibrating tube method

## C(=NCCN=Cc1ccccn1)c1ccccn1 [N,N'-bis(2-pyridinylmethylene)-1,2-ethanediamine] + CC#N
298.15 K, m1 = 0.0396
  viscosity: 0.3511 ± 0.0074 mPa·s
298.15 K, m1 = 0.0397
  viscosity: 0.359 ± 0.0076 mPa·s
  mass density: 778.8 ± 3.9 kg/m3
298.15 K, m1 = 0.0412
  viscosity: 0.352 ± 0.0075 mPa·s and 0.368 ± 0.0078 mPa·s
  mass density: 778.98 ± 3.9 kg/m3 and 778.99 ± 3.9 kg/m3
298.15 K, m1 = 0.0707
  viscosity: 0.372 ± 0.0079 mPa·s
  mass density: 781 ± 3.9 kg/m3
298.15 K, m1 = 0.076
  viscosity: 0.3695 ± 0.0078 mPa·s
  mass density: 781.24 ± 3.9 kg/m3
298.15 K, m1 = 0.0794
  viscosity: 0.367 ± 0.0078 mPa·s
  mass density: 781.36 ± 3.9 kg/m3
298.15 K, m1 = 0.085
  viscosity: 0.357 ± 0.0076 mPa·s
  mass density: 781.2 ± 3.9 kg/m3
298.15 K, m1 = 0.1109
  viscosity: 0.381 ± 0.0081 mPa·s
  mass density: 783.49 ± 3.9 kg/m3
298.15 K, m1 = 0.1136
  viscosity: 0.368 ± 0.0078 mPa·s
  mass density: 783.49 ± 3.9 kg/m3
298.15 K, m1 = 0.1159
  viscosity: 0.374 ± 0.0079 mPa·s
  mass density: 783.49 ± 3.9 kg/m3
298.15 K, m1 = 0.1172
  viscosity: 0.374 ± 0.0079 mPa·s
  mass density: 783.63 ± 3.9 kg/m3
298.15 K, m1 = 0.1441
  viscosity: 0.397 ± 0.0084 mPa·s
  mass density: 785.8 ± 3.9 kg/m3
298.15 K, m1 = 0.1487
  viscosity: 0.395 ± 0.0083 mPa·s
  mass density: 786.71 ± 3.9 kg/m3
298.15 K, m1 = 0.1539
  viscosity: 0.381 ± 0.0081 mPa·s
  mass density: 785.86 ± 3.9 kg/m3
298.15 K, m1 = 0.1655
  viscosity: 0.375 ± 0.0079 mPa·s
  mass density: 785.87 ± 3.9 kg/m3
298.15 K, m1 = 0.396
  mass density: 779.08 ± 3.9 kg/m3
303.15 K, m1 = 0.0397
  mass density: 770.6 ± 3.9 kg/m3
303.15 K, m1 = 0.0412
  mass density: 773.9 ± 3.9 kg/m3 and 773.55 ± 3.9 kg/m3
303.15 K, m1 = 0.0707
  mass density: 775.97 ± 3.9 kg/m3
303.15 K, m1 = 0.076
  mass density: 772.52 ± 3.9 kg/m3
303.15 K, m1 = 0.0794
  mass density: 775.79 ± 3.9 kg/m3
303.15 K, m1 = 0.085
  mass density: 776.45 ± 3.9 kg/m3
303.15 K, m1 = 0.1109
  mass density: 778.35 ± 3.9 kg/m3
303.15 K, m1 = 0.1136
  mass density: 778.33 ± 3.9 kg/m3
303.15 K, m1 = 0.1159
  mass density: 775.25 ± 3.9 kg/m3
303.15 K, m1 = 0.1172
  mass density: 777.74 ± 3.9 kg/m3
303.15 K, m1 = 0.1441
  mass density: 780.11 ± 3.9 kg/m3
303.15 K, m1 = 0.1487
  mass density: 778.7 ± 3.9 kg/m3
303.15 K, m1 = 0.1539
  mass density: 780.33 ± 3.9 kg/m3
303.15 K, m1 = 0.1655
  mass density: 780.09 ± 3.9 kg/m3
303.15 K, m1 = 0.396
  mass density: 773.62 ± 3.9 kg/m3
308.15 K, m1 = 0.0397
  mass density: 762.7 ± 3.8 kg/m3
308.15 K, m1 = 0.0412
  mass density: 765.55 ± 3.8 kg/m3 and 766.66 ± 3.8 kg/m3
308.15 K, m1 = 0.0707
  mass density: 767.82 ± 3.8 kg/m3
308.15 K, m1 = 0.076
  mass density: 764.1 ± 3.8 kg/m3
308.15 K, m1 = 0.0794
  mass density: 769.83 ± 3.9 kg/m3
308.15 K, m1 = 0.085
  mass density: 769.8 ± 3.9 kg/m3
308.15 K, m1 = 0.1109
  mass density: 771.54 ± 3.9 kg/m3
308.15 K, m1 = 0.1136
  mass density: 771.48 ± 3.9 kg/m3
308.15 K, m1 = 0.1159
  mass density: 767.32 ± 3.8 kg/m3
308.15 K, m1 = 0.1172
  mass density: 772.75 ± 3.9 kg/m3
308.15 K, m1 = 0.1441
  mass density: 774.3 ± 3.9 kg/m3
308.15 K, m1 = 0.1487
  mass density: 769.46 ± 3.9 kg/m3
308.15 K, m1 = 0.1539
  mass density: 775.54 ± 3.9 kg/m3
308.15 K, m1 = 0.1655
  mass density: 774.28 ± 3.9 kg/m3
308.15 K, m1 = 0.396
  mass density: 766.62 ± 3.8 kg/m3
313.15 K, m1 = 0.0397
  mass density: 754.02 ± 3.8 kg/m3
313.15 K, m1 = 0.0412
  mass density: 759.53 ± 3.8 kg/m3 and 758.9 ± 3.8 kg/m3
313.15 K, m1 = 0.0707
  mass density: 761.2 ± 3.8 kg/m3
313.15 K, m1 = 0.076
  mass density: 756.48 ± 3.8 kg/m3
313.15 K, m1 = 0.0794
  mass density: 761.42 ± 3.8 kg/m3
313.15 K, m1 = 0.085
  mass density: 762.5 ± 3.8 kg/m3
313.15 K, m1 = 0.1109
  mass density: 764.87 ± 3.8 kg/m3
313.15 K, m1 = 0.1136
  mass density: 764.85 ± 3.8 kg/m3
313.15 K, m1 = 0.1159
  mass density: 759.62 ± 3.8 kg/m3
313.15 K, m1 = 0.1172
  mass density: 767.66 ± 3.8 kg/m3
313.15 K, m1 = 0.1441
  mass density: 767.8 ± 3.8 kg/m3
313.15 K, m1 = 0.1487
  mass density: 761.79 ± 3.8 kg/m3
313.15 K, m1 = 0.1539
  mass density: 770.79 ± 3.9 kg/m3
313.15 K, m1 = 0.1655
  mass density: 767.87 ± 3.8 kg/m3
313.15 K, m1 = 0.396
  mass density: 760.23 ± 3.8 kg/m3
